According to US6887878B2, “KMST isoeugenol derivatives and pharmaceutical activity” (Ing-Jun Chen, priority 2003, dated 2005):
Where “and” joins values, the source holds several entries; their conditions need not be identical. Equal values may be shown once.

Legend:
α1-adrenergic receptor = assay: noradrenaline-induced contraction in isolated rat thoracic aorta (pA2); design: species or system Wistar rat; details: Schild plot, mean ± SEM of eight, listed as KMST
Experimental: (§1) Clonidine, noradrenaline and serotonin (10^−8˜10^−4 M) were added to the bath to induce contractions after pretreatment with KMST for 15 min.

β1-adrenoceptor = target: T1, β1-adrenoceptor (Rattus norvegicus, UniProt P18090); assay: isoprenaline-induced positive inotropic effects in electrically stimulated rat left atria (pA2); design: species or system Wistar rat; details: Schild plot, mean ± SEM of eight, listed as KMST
T1 construct: Left atria were dissected from the hearts and mounted in a 10 ml organ bath; from tissue; host or cells: rat left atria, electrically driven
Experimental: Rats of either sex weighing 350-500 g were sacrificed after mild anesthesia with ether, and their hearts were quickly excised. Left atria were dissected from the hearts and mounted in a 10 ml organ bath with one end fixed and the other end connected to a force displacement transducer (Grass, Model FT03). […] Atria were pre-stretched to a baseline tension of 0.5 g and equilibrated for 60 min in an aerated Krebs solution before starting experimental protocols. Atria were driven at 2-s intervals via two platinum electrodes on each side. An incubation time of 30 min was allowed for the test compound.

β2 receptors = target: T2, β2 receptors (Rattus norvegicus, UniProt P10608); assay: [3H]CGP-12177 receptor binding in rat lung; design: species or system Wistar rat; details: [3H]CGP-12177, rat lung
T2 construct: from tissue; host or cells: Wistar rat lung membranes
Experimental: (§2) The homogenate was pressure filtered through muslin. Filtrate was centrifuged at 1000 g for 10 min. […] Protein content was determined by Bradford's method.

[1] = tested on: epinephrine-induced human platelet aggregation; assay: epinephrine-induced human platelet aggregation; type: cell-based; details: epinephrine 5 μM, PRP
Experimental: Venous blood from human volunteer donors was collected in 10 ml Monovette containing 1 ml citrate solution (0.106M trisodium citrate; Sarstedt, Nümbrecht, Germany) and centrifuged (400 g, 10 min, 20° C.). […] After centrifugation (10 min, 2000 g, 20° C.), the platelet pellet was resuspended in wishing buffer (113 mM NaCl, 4 mM Na2HPO4, 24 mM NaH2PO4, 4 mM KCl, 0.2 mM EGTA(Ethylene glycol-bis-(2-aminoethyl ether) N,N,N′-tetraacetic acid), 0.1% (wt/vol) glucose, pH 6.0) and recentrifuged (10 min, 2000 g, 20° C.). The washed platelets were resuspended in incubation buffer (134 mM NaCl, 12 mM NaHCO3, 2.9 mM KCl, 0.34 mM NaH2PO4, 5 mM HEPES (N-(2-hydroxyethyl) piperazine-N′-(2-ethanesulfonic acid)), 5 mM glucose, pH7.4), cells were counted in a Sysmex hematology analyzer (Sysmex, CDA-500, Japan) and adjusted to a final concentration of 2×10^8 platelets/ml.
The aggregation of the platelets in platelet-rich plasma (PRP) was measured as a change in light absorbance by a Payton dual-channel aggregometer (NBS, Hema tracer, Japan). PRP (240 μL) was stirred (700 rpm) at 37° C. for 1 min, and 5 μL epinephrine (final concentration 5 μM), serotonin (final concentration 5 μM) was added. After which the rate of primary aggregation (1/min) and maximum aggregation (%) at 5 min were recorded. To study the effects of compounds on epinephrine or serotonin-induced aggregation, PRP was incubated with 5 μL of compounds at various concentrations for 1 min before epinephrine or serotonin was added. IC50 values given were calculated from the secondary aggregation data.

anesthetized rats [2] = assay: intra-cisternal injection and NTS microinjection, BP and HR; type: in vivo, rat
Experimental: Intra-cisternal injections of KMST (0.3, 0.03 μmol), yohimbine [0.03 μmol), and clonidine (38 pmol), were performed in rats as described by Duan et al (1987). Briefly, rats weighing 250-300 g were anaesthetized with pentobarbital sodium (50 mg kg^−1, i.p.) and mounted in a David-Kopf stereotaxic instrument (Yeh J L. et al., Brain. Res. Bull., 30:641-648, 1993). The calvarium was exposed and a 1 mm diameter trephine hole was drilled 1.8 mm lateral to the coronary and 1.5 mm posterior to the sagittal sutures. A cannula (0.7 mm O.D.) connected to a Hamilton syringe (RN-705, 5051) by PE-50 was advanced 4.7 mm into the brain using the electrode carrier.
Rats were anesthetized and placed in a David-Kopf stereotaxic instrument. The cerebellum was exposed after removing the skin and occipital bone. The NTS coordinates were (reference to lambda) P 5-6 mm, L/R 0.5-1 mm, depth 6-7.5 mm (Wu et al., 1994). NTS injection sites were confirmed by decreasing BP and HR following micro-injection of 1% L-glutamate. […] Pre-treatment with clonidine was performed 15 min before administration of test agents. At the end of experiments, the animals were sacrificed. The brain was removed and sectioned for histological confirmation of the drug application site.

anesthetized rats [3] = assay: LPS-induced hypotension; type: in vivo, Wistar rat; details: pretreatment, intravenous LPS
Experimental: (§3) In brief, Wistar rats weighing 250-300 g were anesthetized with pentobarbital sodium (50 mg kg^−1, i.p.). Following tracheal cannulation, systemic arterial BP and HR were recorded from the femoral artery by a pressure transducer (model P10EZ; Spectramed, Oxnard, Calif., U.S.A.) connected to a recorder (GOULD, Valley View, Ohio, Model P50). Body temperature was maintained at 37° C. by an electric heating pad. A femoral vein was cannulated for intravenous injection of drugs and LPS (10 mg kg^−1).

[4] = tested on: IL-1β, IL-6, IFN-γ and TNF-α; assay: LPS-induced plasma cytokine immunoreactivity; type: in vivo, rat; details: 1 mg kg−1, i.v., pretreatment
Experimental: as §3
(§4) Blood was collected from venous cannula, injected into ice-cold heparinized Eppendorf tubes and centrifuged at 1500 rpm for 10 min at 4° C. Plasma supernatant was stored at −70° C. until analyzed. Solid phase enzyme immunoassay that specifically detects murine IL-1β, IL-6, IFN-γ and TNF-α was used with a detection limit of >10 pg/ml (Endogen, U.S.A). Pre-treatment with KMST and other agents was performed 15 minutes before intravenous injection of LPS. Blood was collected from venous cannula. Blood glucose was measured with a glucose test strip (Glucotide, Bayer, U.S.A) at 1, 3 and 5 hours.

[5] = LPS-induced blood glucose changes; type: in vivo, rat
Experimental: as §3, §4

5-HT2A receptor [6] = target: T3, 5-HT2A receptor (Rattus norvegicus, UniProt P14842); assay: [3H]ketanserin receptor binding in rat cortex; design: from tissue; host or cells: Wistar rat cortex membranes; species or system Wistar rat
Experimental: as §2

5-HT2A receptor [7] = target: T3, 5-HT2A receptor; assay: 5-HT-induced contraction in isolated rat thoracic aorta (pA2); design: Rat thoracic aorta was removed, cleaned of adhering fat and connective tissue; from tissue; host or cells: Wistar rat thoracic aorta rings; species or system Wistar rat; details: Schild plot, mean ± SEM of eight, listed as KMST
Experimental: as §1

T1 sequence (P18090 whole entry): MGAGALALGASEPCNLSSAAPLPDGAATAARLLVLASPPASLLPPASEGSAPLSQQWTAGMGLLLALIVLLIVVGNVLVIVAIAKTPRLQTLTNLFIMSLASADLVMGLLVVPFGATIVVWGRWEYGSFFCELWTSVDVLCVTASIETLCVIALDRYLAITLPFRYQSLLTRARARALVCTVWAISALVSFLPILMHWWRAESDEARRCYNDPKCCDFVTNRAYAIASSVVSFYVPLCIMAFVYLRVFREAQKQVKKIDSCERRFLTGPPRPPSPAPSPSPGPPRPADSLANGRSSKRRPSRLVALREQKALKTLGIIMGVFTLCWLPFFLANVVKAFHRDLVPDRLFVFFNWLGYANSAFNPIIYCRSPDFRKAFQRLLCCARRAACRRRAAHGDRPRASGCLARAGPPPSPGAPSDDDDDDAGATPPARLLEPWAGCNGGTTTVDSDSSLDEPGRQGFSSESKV
T3 sequence (P14842 whole entry): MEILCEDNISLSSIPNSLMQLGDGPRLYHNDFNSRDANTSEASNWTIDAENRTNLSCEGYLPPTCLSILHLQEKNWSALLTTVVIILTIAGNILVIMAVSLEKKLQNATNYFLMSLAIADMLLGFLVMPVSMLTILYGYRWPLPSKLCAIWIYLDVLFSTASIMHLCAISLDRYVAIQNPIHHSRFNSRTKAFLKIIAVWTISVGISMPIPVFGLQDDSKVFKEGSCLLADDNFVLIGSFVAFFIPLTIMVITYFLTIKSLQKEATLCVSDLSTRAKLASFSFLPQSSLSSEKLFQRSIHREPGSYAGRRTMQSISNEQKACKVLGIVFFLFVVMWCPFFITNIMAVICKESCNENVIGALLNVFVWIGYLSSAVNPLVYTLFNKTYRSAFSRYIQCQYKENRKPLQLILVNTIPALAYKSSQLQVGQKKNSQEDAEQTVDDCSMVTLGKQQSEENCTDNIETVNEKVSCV
T2 sequence (P10608 whole entry): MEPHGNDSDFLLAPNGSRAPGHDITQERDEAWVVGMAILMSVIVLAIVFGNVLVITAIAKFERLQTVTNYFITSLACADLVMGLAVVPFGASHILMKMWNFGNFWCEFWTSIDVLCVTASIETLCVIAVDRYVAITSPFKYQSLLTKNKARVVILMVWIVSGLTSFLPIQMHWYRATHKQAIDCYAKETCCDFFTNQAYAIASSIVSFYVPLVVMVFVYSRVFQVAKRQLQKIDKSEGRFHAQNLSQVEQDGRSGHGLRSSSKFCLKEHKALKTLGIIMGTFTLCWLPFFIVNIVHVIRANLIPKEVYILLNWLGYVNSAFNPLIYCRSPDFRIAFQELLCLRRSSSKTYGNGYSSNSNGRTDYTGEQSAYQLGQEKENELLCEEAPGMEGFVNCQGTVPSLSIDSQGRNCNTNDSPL

CC=Cc1ccc(OCC(O)CN2CCN(c3cccc(Cl)c3)CC2)c(OC)c1 (centres unmarked) [Compound 1]
α1 pA2 value (α1-adrenergic receptor): 7.97±0.39
β1 pA2 value (β1-adrenoceptor): 6.66±0.17 and 6.66
Ki (β2 receptors): > 10000 nM
IC50 [1]: 2780 nM
BP and HR after intra-cisternal injection and NTS microinjection (anesthetized rats [2]; central administration): increased BP and HR
clonidine-induced hypotension and bradycardia (anesthetized rats [2]; high dose (0.3 μmol)): reduced both
clonidine-induced bradycardia (anesthetized rats [2]; low dose (0.03 μmol)): did not inhibit
clonidine-induced hypotension (anesthetized rats [2]; low dose (0.03 μmol)): reduced
aortic hyporeactivity and second prolonged hypotensive reaction induced by LPS (anesthetized rats [3]): inhibited
LPS-induced elevations of IL-1β, IL-6, IFN-γ and TNF-α levels [4]: inhibited
LPS-induced early hyperglycemia ([5]; at 1 and 3 hours): inhibited
LPS-induced hypoglycemia ([5]; at 5 hours): did not affect
Ki (5-HT2A receptor [6]): 33.3 nM
5-HT2A pA2 value (5-HT2A receptor [7]): 8.68±0.12
